Values after ≈ are worked out from the molar mass of the structure shown. Numbered stars: 1 amine (or outer) side, 2 acyl side, 3 side chain; on linkers, the order of the positions; unused ones are H or OH. Bridge positions count the residues as written; N and C are the ends. Square brackets hold non-standard residues; d marks the D form. Peptide text beside a SMILES is read from it. * marks the point of attachment. Phe(3R-OH) = O=C([C@@H](N[*:1])[C@H](O[*:3])c1ccccc1)[*:2]; NMeTrp(4-OMe) = CN[C@@H](Cc1c[nH]c2cccc(OC)c12)C(=O)O; NMeaIle = CC[C@@H](C)[C@H](NC)C(=O)O; NMe2Val = CC(C)[C@@H](C(=O)*)N(C)C; NMeT = CN[C@H](C(=O)O)[C@@H](C)O; NMeL = CN[C@@H](CC(C)C)C(=O)O; NMeV = CN[C@H](C(=O)O)C(C)C
Assays:
[1] = test system: Mycobacteroides abscessus; assay: Antimycobacterial activity against Mycobacterium abscessus; format: functional
[2] = Binding affinity to Mycobacterium abscessus ClpC1 by SPR assay; design: species or system Mycobacteroides abscessus
[3] = test system: Mycobacterium tuberculosis; assay: Antimycobacterial activity against Mycobacterium tuberculosis; format: functional

SMILES	MIC [1] [µM]	MIC50 [1] [µM]	Kd [2] [µM]	MIC [3] [µM]
Cc1cc(C)c2cc(C(=O)NC3CCCCCC3)[nH]c2c1	0.06 (≈ 0.0171 µg/mL)			
CC(C)COc1nn(-c2ccc(Oc3ccccc3)cc2)c(=O)o1		33 (≈ 10.8 µg/mL)		
C/C=C/C[C@@H]1NC(=O)[C@H](CC(C)C)N2C(=O)[C@H](C[C@H](C)[C@H]2O)N(C)C(=O)[C@H](C)NC(=O)[C@H](Cc2ccc(O)c([N+](=O)[O-])c2)NC(=O)[C@H](CC(C)C)N(C)C(=O)[C@H](Cc2cn(C(C)(C)C3CO3)c3ccccc23)NC1=O (some centres not stated)	0.42 (≈ 0.438 µg/mL)		0.1	
CC[C@@H](C)[C@@H](C(=O)N[C@@H]1C(=O)N(C)[C@@H]([C@@H](C)O)C(=O)N[C@@H](C(C)C)C(=O)N(C)[C@@H](CC(C)C)C(=O)N[C@@H](C(C)C)C(=O)N(C)[C@@H](C(C)C)C(=O)N(C)[C@@H](Cc2c[nH]c3cccc(OC)c23)C(=O)N[C@@H](C(C)C)C(=O)N[C@@H]([C@H](O)c2ccccc2)C(=O)N[C@@H](C(C)C)C(=O)O[C@@H]1C)N(C)C(=O)[C@@H](NC(=O)[C@H](C(C)C)N(C)C)C(C)C (NMe2Val-V[NMeaIle]T[NMeT]V[NMeL]V[NMeV][NMeTrp(4-OMe)]V[Phe(3R-OH)]V; ester 3-C)			0.1	0.16 (≈ 0.256 µg/mL)
CCCCCCCCCCCCCCCCOP1(=O)OCCC(C(=O)OC)=C(C)O1 (racemic)		0.37 (≈ 0.165 µg/mL)		
